Measured values published in patent US20260083697A1, “COMPOSITION AND USE OF SAME FOR CONTROLLING INFECTIONS IN AQUATIC ORGANISMS” (priority 2022, published 2026).

Legend:
fish = experiment: Toxicity of commercial fatty acid ethyl esters to fish over 48 h; type: in vivo; details: at least 48 h
Gyrodactylus turnbulli = type: cell-based; details: for antiparasitic activity of pure commercial ethyl ester: commercial ethyl ester form, Kolliphor and sonication
Description: FIGS. 2A-2C include graphs showing antiparasitic effect of residue extract and preparations (FFA & FAEE) with and without the addition of the food-grade detergent Kolliphor (K) and sonication(S) prior to analysis. […] Gyrodactylus turnbulli was exposed to the following preparations: (2A) residue extract (RE) and RE with Kolliphor and sonication (RE-K-S); (2B) FFA and FFA with Kolliphor and sonication (FFA-K-S); and (2C) FAEE with Kolliphor and sonication (FAEE-K-S). The numbers represent the tested concentrations of the solution applied at μL mL^−1. n=3 wells with at least five observed parasites per well.
FIG. 5 includes a vertical bar graph showing dose-dependent antiparasitic effect of fatty acids in their ethyl ester form as tested in situ. Selected were the four FAs that appeared at the highest level in the residue and its extracts and preparations, as pure commercial compounds: myristic acid (14:0), palmitic acid (16:0), palmitoleic acid (16:1n7), and EPA (20:5n3). The analysis was carried out with the addition of Kolliphor (K) and sonication (S). Time to reach 50% parasite mortality was recorded.
FIG. 11A-11B include graphs showing in-situ antiparasitic effect against Gyrodactylus by commercial FAEEs. Gyrodactylus was exposed by commercial FAEEs at 18.75, 37.5, and 75 μM along with addition of 1% Kolliphor (K) and sonication(S).
An in-situ assay was carried out, as described previously (Kim et al., 2021). Briefly, infected guppies (as confirmed by observation under a stereomicroscope (Richards and Chubb 1996)) were anesthetized with 250 ppm of Sedanol (Stockton-Aquamor Ltd., Israel) (Zorin et al., 2019) followed by euthanasia (brain pithing). Tail fin clips with more than four parasites were excised and transferred, using watchmaker's forceps, to a single well of a 24-well plate containing standardized water (STW: dechlorinated tap water with Na2S2O3 at 0.37 mg L^−1 followed by autoclaving). Ethanol and STW, as well as the relevant solvents and preparation protocol used for extraction, were used as negative controls in each trial. Parasites were observed under an inverted microscope (Axiovert 40 CFL, Carl Zeiss AG) for 4 h, at intervals ranging from 5 to 30 min, during which detached and dead parasites were recorded. A total of 12-15 parasites (with three replicates) were analyzed for each treatment concentration.
Residue extract and preparations were tested at the following concentrations: residue extract at 2.5, 5 and 10 μL mL^−1, and FFA and FAEE at 2.5 and 5 μL mL^−1 (in ethanol). Selected pure active compounds were analyzed, based on the analysis of the FAEE composition. These included the ethyl esters of the following fatty acids: myristic acid (14:0), palmitic acid (16:0), palmitoleic acid (16:1n7), and EPA ([…]) (obtained from Nu-Check, USA). Tested concentrations were calculated based on the amount of active compound in the FA profile of ethyl esters according to the GC-results.

Row | Structure (SMILES) | toxicity to fish (fish; 7.3 μM to 14.5 μM) | antiparasitic activity of pure commercial ethyl ester (Gyrodactylus turnbulli) | further results
1 | CCCCCCCCCCCCCC(=O)OCC [14:0, ethyl myristate] | non-toxic | activity | 
2 | CCCCCCCCCCCC(=O)OCC [12:0, ethyl laurate] |  |  | toxicity to fish (fish; 9.375 μM to 37.5 M): non-toxic
3 | CCCCC/C=C\C/C=C\CCCCCCCC(=O)OCC [18:2n6, ethyl linoleate] | non-toxic |  | 
4 | CCCCCCCCCCCCCCCC(=O)OCC [16:0, ethyl palmitate] | non-toxic | activity | 
5 | CCCCCCCCC(=O)OCC [9:0, ethyl nonanoate] |  |  | toxicity to fish (fish; 18.75 μM to 37.5 μM): non-toxic
6 | CCCCCCCCCC(=O)OCC [10:0, ethyl decanoate] |  |  | toxicity to fish (fish; 18.75 μM to 37.5 μM): non-toxic
7 | CCCCC/C=C\C/C=C\C/C=C\CCCCC(=O)OCC [18:3n6, ethyl gamma linolenate] | non-toxic |  | 
8 | CC/C=C\C/C=C\C/C=C\C/C=C\C/C=C\CCCC(=O)OCC [20:5n3] | non-toxic | activity | effect on the parasite at low concentrations (Gyrodactylus turnbulli; 3 and 6 μL mL^−1): inducing parasite mortality; dose dependence of antiparasitic effect (Gyrodactylus turnbulli; 3 to 24 μL mL^−1): dose-dependent effect; relative activity (time to 50% parasite mortality) (Gyrodactylus turnbulli; 12 and 24 μL mL^−1, compared with the other three FAEEs): most active
9 | CC/C=C\C/C=C\C/C=C\CCCCCCCC(=O)OCC [18:3n3, ethyl alpha linolenate] | non-toxic |  | 
